Test results published in US7638343B2, “Method to identify or evaluate compounds useful in the field of fragrances and aromas” (priority 2004, dated 2009).

How the values were obtained:
human respiratory tract [1] = experiment: Metabospace: real-time APCI-MS analysis of exhaled breath after inhalation of saturated headspace of test compound; assay type: in vivo; settings: for decrease of mass chromatogram signal intensity as a function of inhalation/exhalation cycles (release in exhaled breath): after nasal inhalation of the substrate, about 30 inhalation/exhalation cycles
Experimental: The “Metabospace” technology allows real-time detection and analysis of in vivo generated metabolites (exhaled volatiles) starting from compounds of interest. First, a test subject inhales the saturated headspace of a volatile compound. The saturated headspace may be provided as described in the examples herein-below. The breath is exhaled directly into a glass funnel, which works as interface to an analysis device where mass spectra are recorded by a quadrupole mass spectrometer equipped with an atmospheric pressure chemical ionization (APCI) ion source with a modified interface which allows the measurement of fast dynamic changes of volatiles as described in Grab, W., and Gfeller, H. In: ACS Symposium Series 763—Flavor Release (Roberts, D. D., and Taylor, A. J., Eds.) American Chemical Society, Washington, D.C. (2002). The procedure may be performed for example as described further in the examples herein below.
Mass spectrum scans detect the entire range of pseudomolecular ions as well as ions of fragments of molecules. If candidate metabolites are already known, e.g. from in vitro data, the mass chromatogram corresponding to the pseudomolecular ion can be directly visualized together with the chromatogram for the substrate. Acetone is always present in human breath and can be used to show the respiration pattern. Mass spectrum scans of volatiles either exhaled from the nasal or the oral cavity are recorded in narrow time spans, for example twice per second, to follow changes in breath composition as a function of time and respiration cycles. Usually, a series of scans are done to detect other ions that may be linked to the substrate and/or metabolites, which can e.g. be derived from fragments of the substrate and/or the metabolites, as is well-known to the person skilled in the art. Various mass spectrum scans are performed as is well known in the art. In the present invention, a large number of mass spectrum scans are be recorded by the mass spectrometer (for example 2 scans per second). The total ion chromatogram (TIC) gives the total of signals. Individual signals, e.g. the pseudomolecular ion [M+H]^+ for acetone at m/z 59, may be singled out and analysed over time in so-called “mass chromatograms”. Metabolites appear as additional signals in scans, and specific signals are followed over time in respective mass chromatograms. During the first inhalation/exhalation cycles, scans are analysed for ions which are present in exhalations following the inhalation of surrounding air (blank, background) and are not derived from the test compound or from metabolites. It is well known in the art how to identify unknown signals. Depending on the chemistry of the test compound and the possible metabolic reactions which can take place, particular ions are expected to occur if such metabolism takes place. To narrow down the possibilities, a hypothesis based on the test compound (enzyme substrate) and potential biotransformation reactions resulting in metabolites is used. For example, metabolites that result from reactions of the test compound with oxidizing enzymes belonging to the group of CYP enzymes may undergo metabolism including hydroxylation or epoxidation reactions, and specific signals for such metabolites may be generally found at the m/z number of the substrate plus 16. […]

carboxyl esterase = experiment: Metabo-GM with inhibitor of carboxyl esterase as suppressor inhaled before test compound; assay type: in vivo, human; settings: for proportion of detected metabolite with suppressor compared to analysis without suppressor: carboxyl esterase inhibitor inhaled first, then test compound; for metabolite detected in exhaled breath by GC-MS: without suppressor
Experimental: The procedure is performed as described in examples 7 and 10 subject to the following modifications:
As suppressor, an inhibitor for carboxyl esterase is used. As test compound, phenethylacetate is used, which is a substrate for carboxyl esterase.
The procedure is performed as described in example 12A with an inhibitor for carboxyl esterase as suppressor, subject to the following modifications:
As test compound, styrallylacetate is used, which is a substrate for carboxyl esterase.

olfactory perception = settings: cited from earlier work; for olfactory threshold / odour intensity: raspberry aroma, Winter (1961) Helv. Chim. Acta 44:2110
[2] = molecular target: T1, nasal metabolic enzyme CYP2A13 (Homo sapiens, UniProt Q16696); experiment: Metabospace with volatile suppressor inhaled immediately prior to test compound; assay type: in vivo; settings: suppressor (inhibitor of CYP2A13) inhaled immediately prior to test compound; compared with runs without suppressor
T1 construct: from tissue; host or cells: nasal cavity / respiratory tract of a living test subject
T1 sequence (Q16696 1-494): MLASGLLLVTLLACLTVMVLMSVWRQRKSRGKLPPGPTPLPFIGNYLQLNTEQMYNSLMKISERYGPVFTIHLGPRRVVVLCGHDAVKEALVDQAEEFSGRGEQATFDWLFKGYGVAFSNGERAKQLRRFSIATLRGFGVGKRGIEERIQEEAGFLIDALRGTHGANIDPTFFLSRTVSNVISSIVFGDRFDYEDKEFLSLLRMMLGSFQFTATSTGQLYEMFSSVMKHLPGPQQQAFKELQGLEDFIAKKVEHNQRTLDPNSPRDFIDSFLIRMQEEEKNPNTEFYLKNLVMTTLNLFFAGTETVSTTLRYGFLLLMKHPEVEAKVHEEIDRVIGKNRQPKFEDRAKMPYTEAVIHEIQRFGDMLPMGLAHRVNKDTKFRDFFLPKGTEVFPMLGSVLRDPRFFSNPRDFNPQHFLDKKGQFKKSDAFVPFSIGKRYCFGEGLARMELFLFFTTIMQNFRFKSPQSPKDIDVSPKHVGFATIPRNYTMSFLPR
Experimental: A volatile suppressor compound (inhibitor of nasal metabolic enzyme CYP2A13) is inhaled immediately prior to the inhalation of the test compound 2-methoxyacetophenone.
The test subject performs three runs in a row: (1) test compound only; (2) suppressor followed by test compound; (3) test compound only. Before and between runs, blank controls are recorded (inhalation of room air and recording of 30 inhalation/exhalation cycles).
The procedure is performed as described in example 6A, however, as a test compound ketanone is used and ketanone and its metabolite 4-(4-hydroxyphenyl)butan-2-one (raspberry ketone) are detected as described in example 5.

human respiratory tract [3] = experiment: Metabo-GM: exhaled breath trapped on Tenax TA resin, thermodesorption, GC-MS; assay type: in vivo
carboxyl esterases = experiment: Cascade Olfactometer: perceived odour intensity and olfactory threshold of odorant with modulator (inhibitor of carboxyl esterases); assay type: in vivo, human
Experimental: A modulator is identified using an Olfactometer. As reference test compounds, odorant esters are used. A second test compound (potential modulator, modulator test compound) is tested in combination with these odorant test compounds. The odorant reference test compound is kept at a constant concentration with the modulator concentration being varied.
If metabolism is taking place, the amount of styrallylacetate which is stimulating the olfactory system is decreased.
A standard concentration (appropriate dilution of saturated headspace) of the odorant test compound is provided in one Olfactometer (cascade 1) as the reference, while in the second olfactometer (cascade 2) the odorant test compound is provided at the standard concentration supplemented with various concentrations of the modulator (appropriate dilutions of saturated headspace).
First, the threshold for the odorant styrallylacetate is determined for each test subject. The standard concentration is chosen so that it is perceived to be of week to moderate intensity as judged by each test subject.
The concentrations of the modulator test compound are chosen to be below the olfactory threshold of the test subject.
A sample is provided as headspace in a saturation chamber. The flow from said chamber is added to a carrier gas supply and mixed in a chamber which is connected with the sniffing port where a test subject detects the stimulus. Said flow (the headspace of the sample before addition to the carrier) is determined and adjusted so that the test subject rates said flow as medium intensity. This is the reference that is used in cascade 1. For styrallylacetate, a flow of 20 ml/min of the odorant is used. […]
The effect of the modulator on the olfactory threshold of styrallylacetate is determined in as follows. […]
Alternatively, a dose response curve is recorded using one olfactometer (Cascade 2) by providing samples above and below the detected olfactory threshold of the test subjects. This is compared to the known threshold of the compound which is recorded beforehand. […]

[4] = inhalation and exhalation both through the mouth

Structure (SMILES)	decrease of mass chromatogram signal intensity as a function of inhalation/exhalation cycles (release in exhaled breath) (human respiratory tract [1])	proportion of detected metabolite with suppressor compared to analysis without suppressor (carboxyl esterase)	metabolite detected in exhaled breath by GC-MS (carboxyl esterase)	olfactory threshold / odour intensity (olfactory perception)	metabolite signal in exhaled breath in presence of suppressor [2]	amount of metabolite detected in exhaled breath by GC-MS (human respiratory tract [3]; [4])	further results
O=C(CO)c1ccccc1 [2-hydroxyacetophenone]	still near maximal intensity after 30 inhalation/exhalation recordings	–	–	–	–	–	–
CC(=O)OCCc1ccccc1 [phenethylacetate]	–	about 50%	phenethylalcohol is detected	–	–	–	–
COc1ccc(CCC(C)=O)cc1 [ketanone]	retarded release of the more hydrophilic metabolite is observed	–	–	significantly less intense	significantly decreased signal intensity for the metabolite	–	metabolite detected in exhaled breath (mass chromatogram signal) (human respiratory tract [1]; inhalation and exhalation through the nose, human test subject): a compound is detected at m/z 165 which corresponds to 4(4-hydroxyphenyl)butan-2-one (raspberry ketone)
CC(=O)CCc1ccc(O)cc1 [4-(4-hydroxyphenyl)butan-2-one]	–	–	–	very low olfactory threshold	–	–	–
COCC(=O)c1ccccc1 [2-methoxyacetophenone]	decreases relatively quickly, within about 30 inhalation/exhalation cycles	–	–	–	considerably less metabolite is formed in presence of the suppressor	only in a small amount barely detectable	metabolite signal in exhaled breath (human respiratory tract [1]; first variant: inhalation and exhalation both through the mouth): no signal corresponding to the metabolite is detected; amount of metabolite detected in exhaled breath by GC-MS (human respiratory tract [3]; inhalation through the mouth, exhalation through the nose): significantly more metabolite is detected
CC(=O)OC(C)c1ccccc1 (stereo not drawn) [styrallylacetate]	–	significantly lower	styrallylalcohol is detected	–	–	Less styrallylalcohol (metabolite) is detected	olfactory threshold relative to its metabolite (olfactory perception; compared with styrallylalcohol): lower threshold than its metabolite styrallylalcohol; olfactory threshold combined with modulator versus odorant alone (carboxyl esterases; dose response curve, one olfactometer, modulator constant): lower than the determined olfactory threshold for styrallylacetate alone; perceived intensity of the odorant in presence of the potential modulator (carboxyl esterases; odorant flow 20 ml/min constant, modulator flow varied 1 to 900 ml/min, below its olfactory threshold, versus reference without modulator): intensity of the odorant is increased; odour intensity in presence of modulator versus reference (JND protocol) (carboxyl esterases; styrallylacetate 20 ml/min in both cascades, modulator 5 ml/min in cascade 2): stronger than the reference concentration; metabolite detected in exhaled breath by GC-MS (human respiratory tract [3]; inhalation and exhalation through the nose): Significant amounts of styrallylalcohol and acetic acid (metabolites) are detected
